In test [1] the test system is INS-1E cells. As to the kind of experiment: Cellular ATP levels (CellTiter-Glo) in cytokine-treated INS-1E cells; suppression of cytokine-induced beta-cell apoptosis. The test is classed as cell-based, rat. As for the experimental part:
The compounds were analyzed for activity utilizing methods described in Chou et al. (ACS Chem. Biol. 2010 Aug. 20; 5(8):729-34).
INS-1E cells were seeded at 10,000 cells per well using a Multidrop Combi (Thermo Labsystems) in white optical 384-well plates (Corning Life Sciences). After overnight incubation, medium was removed and 50 μL of RPMI containing 1% FBS and a combination of cytokines (10 ng mL-^1 IL-1β, 50 ng mL^−1 IFN-γ, 25 ngmL^−1 TNF-α) was added to every well. Using libraries of compounds dissolved in DMSO and a CyBi-Well pin-transfer robot (CyBio Corp.), 0.1 μL of each compound was added. After 48 h, medium was removed and 20 μL of CellTiter-Glo reagent was added. Luminescence was measured after 10 min of incubation using an EnVision plate reader (PerkinElmer).
Instrument output files were processed using Pipeline Pilot (Accelrys) and input to MATLAB (The MathWorks) for data normalization. Compound performance scores relative to a distribution of mock-treated (DMSO) wells were calculated using a revised version of the scoring system underlying ChemBank. (Seiler et al., Nucleic Acids Res. 36, D351-359, 2008). The role of replicate treatments was further developed as follows: first, mock-treatment distributions were modeled using all mock-treated wells measured on a single day, regardless of their nominal replicate; second, per-compound scores weighted each in-plate background-subtracted measurement by the uncertainty in that measurement, using the method of maximum likelihood. The uncertainty in a single background-subtracted measurement was estimated using the number of mock-treated wells on the plate and, as a measure of the assay noise, the standard deviation of the per-day mock-treatment distribution. The signal, a weighted average of differences, was scaled by the noise, the standard deviation of the mock treatment distribution.
INS-1E cells were seeded at 10,000 cells/well using a Multidrop Combi (Thermo Labsystems) in white optical 384-well plates (Corning Life Sciences). After overnight incubation, medium was removed and 50 μL RPMI containing the treated compound, 1% FBS and a combination of cytokines (10 ng/mL IL-1β, 50 ng/mL IFN-γ, 25 ng/mL TNF-α) was added to every well. After incubation for 48 hr, medium was removed and 20 μL CellTiter-Glo reagent was added. Luminescence was measured after 10-min incubation using an EnVision plate reader (PerkinElmer).
(ATP-based viability assays read luminescence as a measure of living cells.)

For test [2], the system named is INS-1E cells. The test is described as follows: Caspase-3 activity assay (Caspase-Glo 3/7) in cytokine-treated INS-1E cells. The test is classed as cell-based, rat. The following applies: cytokines, 48 h, Caspase-Glo 3/7. As to the method:
INS-1E cells were seeded at 5,000 cells per well in white optical 384-well plates and treated as described for highthroughput screening. After treatment with cytokines and compounds for 48 h, medium was removed and 20 μL Caspase-Glo 3/7 reagent was added. Luminescence was measured after 2 h of incubation using an EnVision plate reader.

Setting [3] is: INS-1E cells, cytokines IL-1β, IFN-γ, TNF-α, 48 h, CellTiter-Glo, read-out: CTG EC50 in HTS.
[4] abbreviates: Rattus norvegicus, INS-1E, assay not named, read-out: EC50.
Setting [5] is: Rattus norvegicus, INS-1E cells, cytokines IL-1β, IFN-γ, TNF-α, 48 h, CellTiter-Glo, read-out: CTG EC50 in HTS.

Broadly, the EC50 is the concentration giving half of the maximal effect. The term IC50 denotes the concentration needed to halve the response being measured.

Each structure is given as a SMILES string.

For the compound `COc1ccc(S(=O)(=O)N(C)C[C@@H]2Oc3c(NC(=O)Nc4cccc(C(F)(F)F)c4)cccc3C(=O)N([C@@H](C)CO)C[C@H]2C)cc1` [Compound 42A], the EC50 in test [1] (setting [3]) and in test [2] was above 25 µM each time.
On to `C[C@@H]1CN([C@@H](C)CO)C(=O)c2cccc(NC(=O)Nc3cccc4ccccc34)c2O[C@H]1CN(C)S(=O)(=O)c1ccc(OC(F)(F)F)cc1` [Compound 16A], for which the EC50 in test [1] (setting [3]) was above 10 µM; in test [2] it was above 25 µM.
Turning to `COc1ccc(S(=O)(=O)N(C)C[C@@H]2Oc3c(NC(=O)Nc4cccc5ccccc45)cccc3C(=O)N([C@@H](C)CO)C[C@H]2C)cc1Cl` [Compound 11A], the EC50 in test [1] (setting [3]) was above 10 µM; in test [2], above 25 µM.
In the case of `C[C@@H]1CN([C@@H](C)CO)C(=O)c2cccc(NC(=O)Nc3cccc4ccccc34)c2O[C@H]1CN(C)S(=O)(=O)c1cccc(F)c1` [Compound 7A], the EC50 in test [1] (setting [3]) and in test [2] was above 25 µM each time.
As for `COc1ccc(S(=O)(=O)N(C)C[C@@H]2Oc3c(NC(=O)Nc4ccccc4)cccc3C(=O)N([C@@H](C)CO)C[C@H]2C)cc1` [Compound 33A], the EC50 in test [1] (setting [3]) and in test [2] was above 25 µM each time.
Take `C[C@@H]1CN([C@@H](C)CO)C(=O)c2cccc(NC(=O)Nc3cccc4ccccc34)c2O[C@H]1CN(C)S(=O)(=O)c1ccc(Cl)cc1` [Compound 5A]: the EC50 is above 0.1 µM in test [1] (setting [3]) and above 25 µM in test [2].
On to `C[C@@H]1CN([C@@H](C)CO)C(=O)c2cccc(NC(=O)Nc3cccc4ccccc34)c2O[C@H]1CN(C)CS(=O)(=O)c1ccc(F)cc1` [Compound 9A], for which the EC50 in test [1] (setting [3]) and in test [2] was above 25 µM in each case.
Regarding `C[C@@H]1CN([C@@H](C)CO)C(=O)c2cccc(NC(=O)Nc3cccc4ccccc34)c2O[C@H]1CN(C)S(=O)(=O)c1ccc2c(c1)OCCCO2` [Compound 25A], the EC50 in test [1] (setting [3]) and in test [2] was above 25 µM in each case.
`C[C@@H]1CN([C@@H](C)CO)C(=O)c2cccc(NC(=O)Nc3cccc4ccccc34)c2O[C@H]1CN(C)S(=O)(=O)c1ccc(Oc2ccccc2)cc1` [Compound 12A]: the EC50 in test [1] (setting [3]) and in test [2] was above 25 µM in each case.
Take `COc1ccc(S(=O)(=O)N(C)C[C@@H]2Oc3c(NC(=O)c4cccc5ccccc45)cccc3C(=O)N([C@@H](C)CO)C[C@H]2C)cc1` [Compound 35A]: the EC50 in test [1] (setting [3]) and in test [2] was above 25 µM each time.
In the case of `COc1ccc(S(=O)(=O)N(C)C[C@@H]2Oc3c(NC(=O)Nc4cccc5c4CC(C)(C)O5)cccc3C(=O)N([C@@H](C)CO)C[C@H]2C)cc1` [Compound 46A], the EC50 in test [1] (setting [3]) and in test [2] was above 25 µM each time.
As to `C[C@@H]1CN([C@@H](C)CO)C(=O)c2cccc(NC(=O)Nc3cccc4ccccc34)c2O[C@H]1CN(C)S(=O)(=O)c1ccc(F)cc1` [Compound 6A], the EC50 in test [1] (setting [3]) and in test [2] was above 25 µM each time.
Consider `C[C@@H]1CN([C@@H](C)CO)C(=O)c2cccc(NC(=O)Nc3cccc4ccccc34)c2O[C@H]1CN(C)S(=O)(=O)c1ccc2c(c1)CCC(=O)N2` [Compound 14A], for which the EC50 in test [1] (setting [3]) and in test [2] was above 25 µM each time.
On to `C[C@@H]1CN([C@@H](C)CO)C(=O)c2cccc(NC(=O)Nc3cccc4ccccc34)c2O[C@H]1CN(C)S(=O)(=O)c1ccc2c(c1)oc(=O)n2C` [Compound 15A], for which the EC50 in test [1] (setting [3]) and in test [2] was above 25 µM each time.
`C[C@@H]1CN([C@@H](C)CO)C(=O)c2cccc(NC(=O)Nc3cccc4ccccc34)c2O[C@H]1CN(C)S(=O)(=O)c1cn(C)cn1` [Compound 36A]: the EC50 in test [1] (setting [3]) and in test [2] was above 25 µM throughout.
`COc1ccc(S(=O)(=O)N(C)C[C@@H]2Oc3c(NC(=O)Nc4cccc5ccccc45)cccc3C(=O)N([C@@H](C)CO)C[C@H]2C)cc1` [Compound 1A, N-(((2R,3R)-5-((S)-1-hydroxypropan-2-yl)-3-methyl-10-(3-(naphthalen-1-yl)ureido)-6-oxo-3,4,5,6-tetrahydro-2H-benzo[b][1,5]oxazocin-2-yl)methyl)-4-methoxy-N-methylbenzenesulfonamide]: the values for the EC50 in test [1] (setting [4]), in test [1] (setting [5]) and in test [2] (Rattus norvegicus) were 0.423 µM, above 0.1 µM and above 0.1 µM, respectively. Further, in test [1] (Rattus norvegicus, INS-1E, read-out: IC50, inhibition of cytokine-induced beta cell apoptosis), the IC50 was determined as 4.9 µM.
Turning to `COc1ccc(S(=O)(=O)N(C)C[C@@H]2Oc3c(NC(=O)Nc4cccc(-c5ncccn5)c4)cccc3C(=O)N([C@@H](C)CO)C[C@H]2C)cc1` [Compound 39A], the concentration giving a half-maximal response (EC50) in test [1] (setting [3]) and in test [2] was above 25 µM each time.
As to `COc1ccc(S(=O)(=O)N(C)C[C@@H]2Oc3c(NC(=O)Nc4cccc5ccccc45)cccc3C(=O)N([C@@H](C)CO)C[C@H]2C)cc1C` [Compound 20A, N-(((2R,3R)-5-((S)-1-hydroxypropan-2-yl)-3-methyl-10-(3-(naphthalen-1-yl)ureido)-6-oxo-3,4,5,6-tetrahydro-2H-benzo[b][1,5]oxazocin-2-yl)methyl)-4-methoxy-N,3-dimethylbenzenesulfonamide], the results for the EC50 in test [1] (setting [4]), in test [1] (setting [5]) and in test [2] (Rattus norvegicus) were 0.314 µM, above 0.1 µM and above 0.1 µM, respectively.
For the compound `COc1ccc(S(=O)(=O)N(C)C[C@@H]2Oc3c(NC(=O)Nc4cc(F)ccc4F)cccc3C(=O)N([C@@H](C)CO)C[C@H]2C)cc1` [Compound 41A], the EC50 in test [1] (setting [3]) and in test [2] was above 25 µM each time.
As to `COc1ccccc1S(=O)(=O)N(C)C[C@@H]1Oc2c(NC(=O)Nc3cccc4ccccc34)cccc2C(=O)N([C@@H](C)CO)C[C@H]1C` [Compound 17A], the EC50 in test [1] (setting [3]) and in test [2] was above 25 µM throughout.
As to `C[C@@H]1CN([C@@H](C)CO)C(=O)c2cccc(NC(=O)Nc3cccc4ccccc34)c2O[C@H]1CN(C)S(=O)(=O)c1ccccc1` [Compound 4A], the EC50 in test [1] (setting [3]) and in test [2] was above 25 µM in each case.
For the compound `C[C@@H]1CN([C@@H](C)CO)C(=O)c2cccc(NC(=O)Nc3cccc4ccccc34)c2O[C@H]1CN(C)S(=O)(=O)c1ccc(-c2ccccc2)cc1` [Compound 13A], the EC50 in test [1] (setting [3]) and in test [2] was above 25 µM each time.
`C[C@@H]1CN([C@@H](C)CO)C(=O)c2cccc(NC(=O)Nc3ccc(F)cc3)c2O[C@H]1CN(C)S(=O)(=O)c1ccc(F)cc1` [Compound 38A]: the EC50 in test [1] (setting [3]) and in test [2] was above 25 µM throughout.
As for `COc1ccc(S(=O)(=O)N(C)C[C@@H]2Oc3c(NC(=O)Nc4cccc5ccccc45)cccc3C(=O)N([C@@H](C)CO)C[C@H]2C)c(OC)c1` [Compound 19A], the EC50 in test [1] (setting [3]) and in test [2] was above 25 µM throughout.
Take `C[C@@H]1CN([C@@H](C)CO)C(=O)c2cccc(NC(=O)Nc3ccc(F)cc3)c2O[C@H]1CN(C)S(=O)(=O)c1ccc(Cl)cc1` [Compound 30A, 4-Chloro-N-(((2R,3R)-10-(3-(4-fluorophenyl)ureido)-5-((S)-1-hydroxypropan-2-yl)-3-methyl-6-oxo-3,4,5,6-tetrahydro-2H-benzo[b][1,5]oxazocin-2-yl)methyl)-N-methylbenzenesulfonamide]: the EC50 in test [1] (setting [5]) and in test [2] (Rattus norvegicus) was above 25 µM in each case.
For `Cc1ccc(S(=O)(=O)N(C)C[C@@H]2Oc3c(NC(=O)Nc4ccc(F)cc4)cccc3C(=O)N([C@H](C)CO)C[C@H]2C)cc1` [Compound 37B], in test [1] (setting [3]), the EC50 is above 25 µM.

The values are drawn from patent publication US8741905B2, “Compounds and methods for treating autoimmune diseases” (The Broad Institute, Inc., priority 2010, dated 2014).
